# Values joined by “and” are separate entries in the source; they are usually repeats but may differ in a detail not shown here. Equal values may be shown once.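 These data come from cells grown in 96-well plates and exposed to compound for 48 hours at five concentrations. GI50 = concentration required for 50% inhibition of growth. The concentration for full growth arrest is given as TGI.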
# What was measured:
# Test in all cases: NCI-60 cell line screen, 48 h
# [1] = tested on: MDA-MB-231 breast
# [2] = tested on: KM12 colon
# [3] = tested on: SW-620 colon
# [4] = tested on: M14 melanoma
# [5] = tested on: HCT-15 colon
# [6] = tested on: MALME-3M melanoma
# [7] = tested on: BT-549 breast
# [8] = tested on: SF-539 CNS
# [9] = tested on: NCI-H522 lung
# [10] = tested on: LOX IMVI melanoma
SMILES,GI50 [1],TGI [1] [µM],GI50 [2],TGI [2] [µM],GI50 [3],TGI [3] [µM],GI50 [4],TGI [4] [µM],GI50 [5],TGI [5] [µM],GI50 [6],TGI [6],GI50 [7],TGI [7] [µM],GI50 [8],TGI [8] [µM],GI50 [9],TGI [9],GI50 [10],TGI [10] [µM]
Fc1cc2[nH]ncc2c2c3c(c(-c4cn[nH]c4C(F)(F)F)nc12)CCCC3,1.83 µM,7.23,2.13 µM,15.3,1.36 µM,> 100,1.31 µM,4.12,2.79 µM,15.2,1.91 µM,5.41 µM,1.38 µM,2.96,1.29 µM,3.06,1.62 µM,9.4 µM,1.1 µM,3.05
CCSCC1CC(O)(c2ccccc2)CC(c2ccc(F)cc2)O1 (configuration not stated),1.98 µM,4.39,1.88 µM,3.67,1.98 µM,4.42,1.76 µM,3.32,2.11 µM,5.49,1.56 µM,3.51 µM,1.6 µM,3.45,1.94 µM,3.84,1.94 µM,5.88 µM,1.6 µM,2.94
O=S(=O)(NCCCNc1nccc(-c2c(-c3ccc(O)cc3)nc3sccn23)n1)c1ccc(F)cc1,1.82 µM,> 100,2.02 µM,5.46,3.66 µM,> 100,0.064 µM,2.8,2.61 µM,10,0.0391 µM,3.56 µM,2.36 µM,10.4,2.04 µM,13.9,1.83 µM,6.27 µM,0.567 µM,5.44
COc1ccc(C2=N[C@@H](Cc3ccccc3)C(=O)Nc3ccsc32)cc1,11.4 µM,29.1,5.62 µM,20.9,4.38 µM,27.9,3.66 µM,12.6,3.9 µM,20.4,10.4 µM,25.9 µM,10.6 µM,28.5,2.75 µM,9.84,2.71 µM,8.98 µM,6.48 µM,22
Nc1nccc(-c2c(-c3ccc(F)cc3)ncn2C2CCNCC2)n1,> 25 µM and 3.97 µM,> 25,4.26 µM and 4.01 µM,> 25,4.25 µM and 1.38 µM,> 25,13.3 µM and 3.85 µM,> 25,> 25 µM and 6.43 µM,> 25,8.72 µM and 5.23 µM,> 25 µM and 21.4 µM,17.2 µM and 12 µM,> 25,23.5 µM and 8.37 µM,> 25,6.98 µM and 2.04 µM,> 25 µM and 7.22 µM,2.84 µM and 2.33 µM,> 25
CC(C)(C)c1ccc(S(=O)(=O)Oc2ccc3c4c(c(=O)oc3c2)CCCCC4)cc1,15.2 µM,49.3,> 100 µM,> 100,85.6 µM,> 100,20.4 µM,> 100,7.92 µM,> 100,24.8 µM,76.5 µM,17.7 µM,> 100,24.2 µM,> 100,19.2 µM,> 100 µM,32.5 µM,> 100
CS(=O)(=O)Nc1cncc(-c2ccc3ncnc(Nc4ccc(F)c(Cl)c4)c3c2)c1,2.92 µM,17.6,3.49 µM,13.3,3.15 µM,11.8,3.33 µM,15.1,3.66 µM,16,2.08 µM,13.6 µM,1.9 µM,7.98,2.24 µM,11.3,1.01 µM,4.1 µM,1.73 µM,10.2
CCN1C(=S)N(c2ccccc2)C2NC(=S)N(/N=C/C=C/c3ccccc3OC)C21 (configuration not stated),0.544 µM,> 27.4,0.323 µM,> 64.8,0.404 µM,> 100,0.304 µM,> 100,0.344 µM,> 100,0.957 µM,> 100 µM,0.954 µM,–,0.253 µM,0.732,0.224 µM,1.26 µM,0.482 µM,> 100
c1ccc2sc(SCCSc3nc4ccccc4s3)nc2c1,–,> 100,–,> 100,–,> 100,–,> 100,–,> 100,–,> 100 µM,–,> 100,–,–,–,> 100 µM,–,> 100
O=C(CC(Cl)=C(Cl)Cl)Nc1ccccc1,> 100 µM,> 100,> 100 µM,> 100,> 100 µM,> 100,> 100 µM,> 100,> 100 µM,> 100,> 100 µM,> 100 µM,> 100 µM,> 100,> 100 µM,> 100,> 100 µM,> 100 µM,> 100 µM,> 100
CC(C)(Br)C(=O)N1CCN(C(c2ccccc2)c2ccccc2)CC1,–,> 100,–,31.8,–,> 100,–,> 100,–,> 100,–,> 100 µM,–,> 100,–,> 100,–,> 100 µM,–,> 100
COc1ccc(C2CC(c3cccc(Nc4ccnc5cc(Cl)ccc45)c3)=NN2C=O)cc1 (configuration not stated),1.7 µM,> 66.4,0.4 µM,> 36.4,0.333 µM,> 100,0.374 µM,21.2,0.541 µM,> 100,–,> 100 µM,0.486 µM,9.86,0.785 µM,8.42,0.265 µM,3.06 µM,0.584 µM,6.8
O=Nc1ccc(O)c(=O)cc1,2.31 µM,8.79,5.99 µM,16.3,0.657 µM,2.35,2.52 µM,7.01,2.37 µM,9.62,1.21 µM,4.14 µM,2.86 µM,8.75,2.67 µM,7.48,0.141 µM,0.524 µM,2.16 µM,7.67

# Source: PubChem BioAssay (NCI)
